Experimental data reported in patent US9592224B2, “Substituted benzothiazoles and therapeutic uses thereof for the treatment of human diseases” (CONSEJO SUPERIOR DE INVESTIGACIONES CIENTÍFICAS, priority 2013, dated 2017).

Key:
[1] = target: T1, recombinant human enzyme CK-1δ (Homo sapiens, UniProt P48730); test: Enzyme inhibition assay, Luminometer Kinase-GLO method, CK-1δ; assay type: biochemical; conditions: for IC50: casein substrate, 4 μM ATP, 60 minutes at 30° C., read-out: Inhibitory Concentration 50 (IC50) CK-1δ
T1 construct: purchased Millipore Iberica SAU
Experimental: (§1) Enzyme inhibition assays were performed using the Luminometer Kinase-GLO® method. Recombinant human enzyme CK-1δ was purchased from Millipore Iberica SAU and recombinant human enzyme CK-1ε was purchased from Invitrogen. The phosphorylation substration chosen was casein. The Luminescent Kinase Kit (catalogue no. V6711) was obtained from Promega. ATP and other reagents were purchased from Sigma-Aldrich (St. Louis, Mo.).
(§2) The assays were conducted in buffer using 96-well plates. In a typical assay: 10 μL of the test compound (dissolved in dimethylsulfoxide at a concentration of 1 mM and, in turn, dissolved in buffer to the required concentration for the experiment) and 10 μL (16 ng) of the CK-1δ enzyme or 10 μL (50 ng) of the CK-1ε enzyme row were added to each well followed by 20 μL of buffer containing 0.1% casein as substrate and 4 μM of ATP. The assay buffer contained: 50 mM HEPES, pH 7.5; 0.01% Brij-35; 10 mM MgCl2; 1 mM EGTA and 0.01% NaN3. […] After incubating for 60 minutes at 30° C., the enzymatic reaction was stopped using 40 μL of Kinase-GLO® reagent. Luminescence was measured after ten minutes using a FLUOstar Optima (BMG Labtechnologies GmbH, Offenburg, Germany) multimode reader. The activity was proportional to the difference between the total and consumed ATP. Inhibition activities were calculated in accordance with the maximum activity measured in the absence of inhibitor. IC50 is defined as the concentration of each compound that reduces enzyme activity by 50% with respect to that obtained without inhibitor.

[2] = target: T2, recombinant human enzyme CK-1ε (Homo sapiens, UniProt P49674); test: Enzyme inhibition assay, Luminometer Kinase-GLO method, CK-1ε; assay type: biochemical; conditions: for IC50: casein substrate, 4 μM ATP, 60 minutes at 30° C., read-out: Inhibitory Concentration 50 (IC50) CK-1ε
T2 construct: purchased Invitrogen
Experimental: as §1, §2

in vitro = conditions: pig, pH 7.4; for Papp at […]: PAMPA
Experimental: To filter the samples, PVDF membrane filters (diameter: 30 mm, pore size: 0.45 μm) were used.
Ten reference compounds were selected, whose blood-brain barrier passage is known and public, in order to validate the experiment. […] The solutions were filtered. Next, 180 μL of a PBS/ethanol (70/30) solution were added to each well of the acceptor plate. The donor plate was impregnated with 4 μL of a porcine brain lipid solution dissolved in dodecane (20 mg mL^−1). After 5 min, 180 μL of dissolution of each compound were added to this plate. Of the compounds whose penetration into the central nervous system was to be assessed, between 1-2 mg were taken and dissolved in 1,500 μL of ethanol and 3,500 μL of PBS (pH=7.4), filtered and added to the donor 96-well plate. The donor plate was then placed on the acceptor forming a kind of “sandwich” and allowed to incubate for 2 hours and 30 min at 25° C. The compounds, by passive transport, will move from the donor plate through the porcine brain lipid to the acceptor plate. After 2 hours and 30 min, it was carefully removed from the donor plate. The concentration and absorbance, both of the commercial compounds and the synthesised derivatives evaluated in the acceptor and donor plates were determined using a UV absorbance reader. Each sample was analysed at different wavelengths (3 to 5) in three wells and in at least two independent experiments.

[3] = literature value, Di et al, 2003; cited from earlier work

T1 sequence (P48730 whole entry): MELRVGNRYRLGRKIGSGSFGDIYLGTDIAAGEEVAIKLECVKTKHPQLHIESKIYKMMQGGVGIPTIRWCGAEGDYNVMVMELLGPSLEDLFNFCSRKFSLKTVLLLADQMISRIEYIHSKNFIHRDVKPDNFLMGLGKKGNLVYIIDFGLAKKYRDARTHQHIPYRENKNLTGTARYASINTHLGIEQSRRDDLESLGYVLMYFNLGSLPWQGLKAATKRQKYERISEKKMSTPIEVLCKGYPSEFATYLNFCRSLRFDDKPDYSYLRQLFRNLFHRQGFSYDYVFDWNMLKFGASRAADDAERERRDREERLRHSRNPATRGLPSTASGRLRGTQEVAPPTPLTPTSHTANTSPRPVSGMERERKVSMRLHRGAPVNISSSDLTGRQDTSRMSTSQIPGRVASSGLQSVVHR
T2 sequence (P49674 whole entry): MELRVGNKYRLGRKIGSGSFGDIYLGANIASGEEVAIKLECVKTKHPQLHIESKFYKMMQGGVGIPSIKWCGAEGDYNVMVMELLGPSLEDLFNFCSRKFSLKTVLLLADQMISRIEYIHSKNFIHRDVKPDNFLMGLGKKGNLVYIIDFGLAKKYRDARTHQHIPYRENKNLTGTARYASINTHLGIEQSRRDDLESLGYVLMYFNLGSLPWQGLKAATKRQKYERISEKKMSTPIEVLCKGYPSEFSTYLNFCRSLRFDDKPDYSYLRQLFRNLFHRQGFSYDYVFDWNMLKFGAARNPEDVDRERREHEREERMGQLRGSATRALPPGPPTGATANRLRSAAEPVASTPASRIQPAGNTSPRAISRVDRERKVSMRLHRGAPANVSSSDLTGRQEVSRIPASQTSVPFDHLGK

Row | SMILES | IC50 [1] | IC50 [2] | Papp at […] (in vitro) | other results
1 | O=C(Cc1ccc(Cl)cc1)Nc1nc2ccc(C(F)(F)F)cc2s1 [Compound 1, N-(6-trifluoromethylbenzothiazole-2-yl)-2-(4-chlorophenyl)acetamide] | 65 nM | 550 nM | 9.6 ± 0.1 ×10⁻⁶ cm/s | 
2 | COc1ccc(CC(=O)Nc2nc3ccc(C(F)(F)F)cc3s2)cc1 [Compound 3, N-(6-trifluoromethylbenzothiazole-2-yl)-2-(4-methoxyphenyl)acetamide] | 33 nM | 700 nM | 14.6 ± 0.1 ×10⁻⁶ cm/s | 
3 | O=C(Cc1cccc(Cl)c1)Nc1nc2ccc(C(F)(F)F)cc2s1 [Compound 4, N-(6-trifluoromethylbenzothiazole-2-yl)-2-(3-chlorophenyl)acetamide] | 23 nM | 840 nM | 5.9 ± 0.5 ×10⁻⁶ cm/s | 
4 | Cc1ccc2nc(NC(=O)Cc3cccc(Cl)c3)sc2c1 [Compound 5, N-(6-methylbenzothiazole-2-yl)-2-(3-chlorophenyl)acetamide] | 83 nM | 880 nM | 5.6 ± 0.8 ×10⁻⁶ cm/s | 
5 | COc1cccc(CC(=O)Nc2nc3ccc(C(F)(F)F)cc3s2)c1 [Compound 6, N-(6-trifluoromethylbenzothiazole-2-yl)-2-(3-methoxyphenyl)acetamide] | 42 nM | 690 nM | 11.2 ± 2 ×10⁻⁶ cm/s | 
6 | COc1ccccc1CC(=O)Nc1nc2ccc(C(F)(F)F)cc2s1 [Compound 8, N-(6-trifluoromethylbenzothiazole-2-yl)-2-(2-methoxyphenyl)acetamide] | 10 nM | 800 nM | 11.3 ± 2.1 ×10⁻⁶ cm/s | 
7 | COc1cc(CC(=O)Nc2nc3ccc(C(F)(F)F)cc3s2)cc(OC)c1OC [Compound 10] | 15 nM | 370 nM | 10.6 ± 0.1 ×10⁻⁶ cm/s | 
8 | O=C(Cc1ccccc1)Nc1nc2ccc(C(F)(F)F)cc2s1 [Compound 12, N-(6-trifluoromethylbenzothiazole-2-yl)-2-phenylacetamide] | 47 nM | 760 nM | 10.4 ± 3.9 ×10⁻⁶ cm/s | 
9 | O=C(Cc1ccccc1)Nc1nc2ccccc2s1 [Compound 14, N-(benzothiazole-2-yl)-2-phenylacetamide] | 330 nM | 2310 nM | 12.7 ± 1.2 ×10⁻⁶ cm/s | 
10 | O=C(Cc1cccc(Cl)c1)Nc1nc2ccccc2s1 [Compound 20, N-(benzothiazole-2-yl)-2-(3-chlorophenyl)acetamide] | 850 nM | 2860 nM | 10.6 ± 0.3 ×10⁻⁶ cm/s | 
11 | COc1ccccc1CC(=O)Nc1nc2ccc(C)cc2s1 [Compound 30, N-(6-methylbenzothiazole-2-yl)-2-(2-methoxyphenyl)acetamide] | 290 nM | 4930 nM | 6.2 ± 0.5 ×10⁻⁶ cm/s | 
12 | COc1ccc2nc(NC(=O)Cc3ccccc3OC)sc2c1 [Compound 51, N-(6-methoxybenzothiazole-2-yl)-2-(2-methoxyphenyl)acetamide] | 2220 nM |  | 11.2 ± 0.9 ×10⁻⁶ cm/s | inhibition at 10 µM [2]: 33%
13 | CCOc1ccc2nc(NC(=O)Cc3ccccc3OC)sc2c1 [Compound 52, N-(6-ethoxybenzothiazole-2-yl)-2-(2-methoxyphenyl)acetamide] | 5760 nM |  |  | inhibition at 10 µM [2]: 46%
14 | COc1ccc2nc(NC(=O)Cc3ccc(Cl)c(Cl)c3)sc2c1 [Compound 53, N-(6-methoxybenzothiazole-2-yl)-2-(3,4-dichlorophenyl)acetamide] | 1240 nM | 16500 nM |  | 
15 | CCOc1ccc2nc(NC(=O)Cc3ccc(Cl)c(Cl)c3)sc2c1 [Compound 54, N-(6-ethoxybenzothiazole-2-yl)-2-(3,4-dichlorophenyl)acetamide] | 3430 nM | 14200 nM |  | 
16 | COc1ccc2nc(NC(=O)Cc3cc(OC)c(OC)c(OC)c3)sc2c1 [Compound 55, N-(6-methoxybenzothiazole-2-yl)-2-(3,4,5-trimethoxyphenyl)acetamide] | 6650 nM | 17700 nM |  | 
17 | CCOc1ccc2nc(NC(=O)Cc3cc(OC)c(OC)c(OC)c3)sc2c1 [Compound 56, N-(6-ethoxybenzothiazole-2-yl)-2-(3,4,5-trimethoxyphenyl)acetamide] | 1430 nM | 9830 nM |  | 
18 | COc1cc(/C=C/C(=O)Nc2nc3ccc(S(=O)(=O)N(C)C)cc3s2)cc(OC)c1OC [Compound 57, (E)-N-(6-(N,N-dimethylsulfamoyl)benzothiazole-2-yl)-3-(3,4,5-trimethoxyphenyl) acrylamide] |  |  |  | CK-1δ inhibition % @ 10 μM ([1]; @ 10 μM): 10% @; CK-1ε inhibition % @ 10 μM ([2]; @ 10 μM): 10% @
19 | COc1ccccc1CC(=O)Nc1nc2ccc(F)cc2s1 [Compound 59, N-(6-fluorobenzothiazole-2-yl)-2-(2-methoxyphenyl)acetamide] | 1170 nM | 4510 nM |  | 
20 | CN1C(C(=O)Nc2ccccn2)=C(O)c2ccccc2S1(=O)=O [Piroxicam, reference compound] |  |  |  | Pe (10^−6 cm s^−1) PAMPA-blood-brain barrier permeation (in vitro; […]): 0.2 ± 0.1 10^−6 cm s^−1; Bibl. PAMPA-blood-brain barrier permeation (Pe) [3]: 2.5 10^−6 cm s^−1
21 | CN(C)CCCN1c2ccccc2Sc2ccccc21 [Promazine, reference compound] |  |  | 8.5 ± 0.1 ×10⁻⁶ cm/s | Bibl. PAMPA-blood-brain barrier permeation (Pe) [3]: 8.8 10^−6 cm s^−1
